Eleven molecules from patent US11952365B2, “Anti-viral compounds” (Aligos Therapeutics, Inc., priority 2020, dated 2024) can be followed below.

The subject of data set [1] is SARS-CoV-2-GHB-03021/2020. As to the kind of experiment: SARS-CoV-2 Infection Model in Huh7 Cells. The data set is classed as cell-based. To be noted: Severe acute respiratory syndrome coronavirus 2, Huh-7, 96 h, SARS-CoV-2, day 4 p.i., MTS.
The target of another data set is 3CLpro (Severe acute respiratory syndrome coronavirus 2, UniProt P0DTD1). As to the kind of experiment: SARS-CoV-2 3CLpro protease assay (duplex, SAMDI-MS). Also on record: For the duplex assay, 3CLpro and HRV3C was added. To be noted: 3CLpro, 30 mins preincubation, class symbols; read-out: SARS-Cov-2 IC50. In kind it is biochemical.
Another data set concerns the target T1, human cathepsin L (Homo sapiens, UniProt P07711).
T1 construct: purchased R&D Systems
Nature of the data set: cathepsin L assay. The data set is classed as biochemical. The conditions noted are these: 10 pM human cathepsin L, Z-FR-AMC 2 μM, class symbols. A digest of the protocol:
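Reactions began by adding 2 μM (final) Z-FR-AMC substrate to 10 pM human cathepsin L that had been preincubated 30 min with inhibitor. Kinetic AMC fluorescence at 355/460 nm over 30 min at 2-min intervals; four-parameter fitting gave IC50 values.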

Another data set deals with HRV3C (Human rhinovirus 14, UniProt P03303). Nature of the data set: HRV3C protease assay (duplex, SAMDI-MS). The data set is classed as biochemical, HRV. The conditions noted are these: 30 mins preincubation. A digest of the protocol: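 HRV3C was preincubated 30 min with compound alongside 3CLpro at ambient temperature, then two biotinylated peptide substrates were added for 30 min. Quenching used 0.5% formic acid (final). Cleaved product was captured on neutravidin SAMDI arrays and quantified by MALDI-TOF as product/internal-standard AUC ratio; IC50 from four-parameter fit.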

A short description of data set [2]: in vitro. The conditions noted are these: human.
The nature of data set [3]: in vitro. To be noted: African green monkey, VeroE6 + CP (CC50), Vero E6-eGFP cells with CP-100356, absence of virus, MTS.
The nature of data set [4]: Cytotoxicity plates without OC43 virus (cell-titer-glo). In kind it is cell-based, human. The conditions noted are these: human; HeLa cells without OC43 virus, class symbols. A digest of the protocol:
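Run as a virus-free counterpart of the OC43 cytopathic-effect assay. Attached HeLa cells received compound dilutions in EMEM with 2% FBS and were kept 6 days at 33 °C. Cell viability was then measured by CellTiter-Glo luminescence.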

In data set [5] the test system is SARS-CoV-2-GHB-03021/2020. Nature of the data set: microbe, parasite or virus in culture. In kind it is cell-based. To be noted: Severe acute respiratory syndrome coronavirus 2, Vero C1008, 96 h; read-out: VeroE6 + CP (EC50).
Data set [6] relates to human beta-coronavirus OC43. As to the kind of experiment: microbe, parasite or virus in culture. In kind it is cell-based. To be noted: Betacoronavirus 1, OC43, HeLa, 144 h, OC43 in HeLa cells, 6 days at 33° C., class symbols; read-out: EC50.
[7] abbreviates: HRV3C, bound, read-out: HRV IC50.
[8] abbreviates: HRV3C, class symbols, read-out: HRV IC50.

Read-outs that look alike come from different tables or passages of the source.

One may read the EC50 as the concentration needed to bring the measured effect to its halfway point. As a reminder, the IC50 is the point on the concentration scale where inhibition reaches its midpoint. `O=C1NCC[C@H]1C[C@H](NC(=O)[C@@H]1[C@H]2CCC[C@H]2CN1C(=O)c1cc2c(Cl)cc(Cl)c(F)c2[nH]1)C(=O)CO` [Compound 160, (1S,3aR,6aS)-2-(4,6-dichloro-7-fluoro-1H-indole-2-carbonyl)-N—((S)-4-hydroxy-3-oxo-1-((S)-2-oxopyrrolidin-3-yl)butan-2-yl)octahydrocyclopenta[c]pyrrole-1-carboxamide]: the half-maximal effective concentration (EC50) is less than 1 µM in data set [1] (class symbols), less than 1 µM in data set [5] and 0.1 to 1 µM in data set [6]. For the same molecule, the 50% inhibitory concentration (IC50) on 3CLpro was less than 0.02 µM; against human cathepsin L it was not below 10 µM; on HRV3C (setting [7]) it was more than 10 µM. For the same molecule, the CC50 was more than 10 µM in “in vitro [2]” and more than 50 µM in the data set “in vitro [3]” (numeric bounds). For the same molecule, the CC50 at 6 days in data set [4] was more than 10 µM.

As for `O=C1NCC[C@H]1C[C@H](NC(=O)[C@@H]1[C@H]2CCC[C@H]2CN1C(=O)c1cc2c(Cl)cc(F)cc2[nH]1)C(=O)CO` [Compound 90, (1S,3aR,6aS)-2-(4-chloro-6-fluoro-1H-indole-2-carbonyl)-N-[(2S)-4-hydroxy-3-oxo-1-[(3S)-2-oxopyrrolidin-3-yl]butan-2-yl]-hexahydro-1H-cyclopenta[c]pyrrole-1-carboxamide], the 50% effective concentration (EC50) in data set [1] (class symbols) was less than 1 µM; in data set [5], less than 1 µM; in data set [6], less than 0.1 µM. The values for the concentration for half-maximal inhibition (IC50) on 3CLpro, on human cathepsin L and at HRV3C (setting [8]) were less than 0.02 µM, not below 10 µM and 2 to 20 µM, respectively. Moreover, the CC50 in the data set “in vitro [2]” is more than 50 µM; in the data set “in vitro [3]” (numeric bounds), more than 100 µM. In addition, in data set [4], the CC50 at 6 days was more than 10 µM.

For the molecule `COc1cccc2[nH]c(C(=O)N3C[C@@H]4CCC[C@@H]4[C@H]3C(=O)N[C@H](CN3CCCC3=O)C(=O)C(=O)NC3CC3)cc12` (single isomer, unassigned) [Compound 113B], the concentration for a half-maximal effect (EC50) in [1] (numeric bounds) was more than 50 µM; in [5], 10 to 100 µM; in [6] it was 1 to 10 µM. Besides, the values for the IC50 at 3CLpro, on human cathepsin L and at HRV3C (setting [8]) were 2 to 20 µM, not below 10 µM and 2 to 20 µM, respectively. The CC50 in the data set “in vitro [2]” and in “in vitro [3]” (numeric bounds) was more than 50 µM in each case. The molecule also registered a CC50 at 6 days in data set [4] of more than 10 µM.

For the molecule `COc1cccc2[nH]c(C(=O)N3C[C@@H]4CCC[C@@H]4[C@H]3C(=O)NC(C[C@@H]3CCNC3=O)C(=O)C(=O)NCc3ccccc3)nc12` (stereo partly drawn) [Compound 36, 3-[[(1S,3aR,6aS)-2-(4-methoxy-1H-1,3-benzodiazole-2-carbonyl)-hexahydro-1H-cyclopenta[c]pyrrol-1-yl]formamido]-N-benzyl-2-oxo-4-[(3S)-2-oxopyrrolidin-3-yl]butanamide], the EC50 in data set [1] (class symbols), in data set [5] and in [6] was 10 to 100 µM in each case. In addition, the IC50 on 3CLpro was 0.02 to 0.2 µM; against human cathepsin L it was not below 10 µM; at HRV3C (setting [8]) it was 20 to 100 µM. The CC50 in “in vitro [2]” and in the data set “in vitro [3]” (numeric bounds) was more than 100 µM each time. Besides, in [4], the CC50 at 6 days was more than 10 µM.

Regarding `O=C1NCC[C@H]1C[C@H](NC(=O)[C@@H]1[C@H]2CCC[C@H]2CN1C(=O)c1cc2c(Cl)c(F)cc(Cl)c2[nH]1)C(=O)CO` [Compound 122, (1S,3aR,6aS)-2-(4,7-dichloro-5-fluoro-1H-indole-2-carbonyl)-N-[(2S)-4-hydroxy-3-oxo-1-[(3S)-2-oxopyrrolidin-3-yl]butan-2-yl]-hexahydro-1H-cyclopenta[c]pyrrole-1-carboxamide], the concentration giving a half-maximal response (EC50) in data set [1] (class symbols) was less than 1 µM; in [5] it was less than 1 µM; in data set [6], less than 0.1 µM. The IC50 is 0.02 to 0.2 µM on 3CLpro, not below 10 µM at human cathepsin L and more than 10 µM on HRV3C (setting [7]). The CC50 in the data set “in vitro [2]” and in the data set “in vitro [3]” (numeric bounds) was more than 50 µM each time. For the same molecule, the CC50 at 6 days in data set [4] was more than 10 µM.

Turning to `O=C1NCC[C@H]1C[C@H](NC(=O)[C@@H]1[C@H]2CCC[C@H]2CN1C(=O)c1cc2c(OC3CC3)cc(Cl)cc2[nH]1)C(=O)CO` [Compound 138, (1S,3aR,6aS)-2-(6-chloro-4-cyclopropoxy-1H-indole-2-carbonyl)-N-[(2S)-4-hydroxy-3-oxo-1-[(3S)-2-oxopyrrolidin-3-yl]butan-2-yl]-hexahydro-1H-cyclopenta[c]pyrrole-1-carboxamide], the EC50 in [1] (class symbols) is less than 1 µM; in data set [5], 1 to 10 µM; in data set [6], less than 0.1 µM. Also, the IC50 at 3CLpro is less than 0.02 µM; on human cathepsin L, not below 10 µM; on HRV3C (setting [8]), 2 to 20 µM. Moreover, the CC50 in the data set “in vitro [2]” and in the data set “in vitro [3]” (numeric bounds) was more than 50 µM each time. Moreover, the CC50 at 6 days in [4] is more than 10 µM.

For the molecule `COc1cccc2[nH]c(C(=O)N3C[C@]4(C[C@H]3C(=O)NC(C[C@@H]3CCCNC3=O)C(=O)C(=O)NCc3ccccc3)CC4(F)F)cc12` (stereo partly drawn) [Compound 33, N-benzyl-3-{[(3S,6S)-1,1-difluoro-5-(4-methoxy-1H-indole-2-carbonyl)-5-azaspiro[2.4]heptan-6-yl]formamido}-2-oxo-4-[(3S)-2-oxopiperidin-3-yl]butanamide], the EC50 was 1 to 10 µM in data set [1] (class symbols), less than 1 µM in data set [5] and 0.1 to 1 µM in [6]. For the same molecule, the IC50 on 3CLpro was in the range of 0.02 to 0.2 µM; against human cathepsin L, 0.1 to 1 µM; on HRV3C (setting [8]), 0.2 to 2 µM. In addition, the CC50 in the data set “in vitro [2]” and in the data set “in vitro [3]” (numeric bounds) was more than 100 µM each time. The molecule further displayed a CC50 at 6 days in [4] of more than 10 µM.

For `CS(=O)(=O)Oc1cccc2[nH]c(C(=O)N3C[C@@H]4CCC[C@@H]4[C@H]3C(=O)N[C@@H](C[C@@H]3CCNC3=O)C(=O)CO)cc12` [Compound 155, 2-[(1S,3aR,6aS)-1-{[(2S)-4-hydroxy-3-oxo-1-[(3S)-2-oxopyrrolidin-3-yl]butan-2-yl]carbamoyl}-hexahydro-1H-cyclopenta[c]pyrrole-2-carbonyl]-1H-indol-4-yl methanesulfonate], the values for the concentration giving a half-maximal response (EC50) in [1] (numeric bounds), in data set [5] and in data set [6] were more than 50 µM, 10 to 100 µM and 1 to 10 µM, respectively. Also, the results for the IC50 at 3CLpro, against human cathepsin L and at HRV3C (setting [7]) were 0.02 to 0.2 µM, not below 10 µM and more than 10 µM, respectively. Moreover, the CC50 in the data set “in vitro [2]” and in “in vitro [3]” (numeric bounds) was more than 50 µM in each case. In data set [4], this molecule showed a CC50 at 6 days of more than 10 µM.

As to `O=C(NCCOCC1CCCC1)C(=O)[C@H](C[C@@H]1CCNC1=O)NC(=O)[C@@H]1[C@H]2CCC[C@H]2CN1C(=O)c1cc2c(Cl)cc(Cl)cc2[nH]1` [Compound 174], the 50% effective concentration (EC50) in data set [1] (class symbols) was less than 1 µM; in data set [5], less than 1 µM; in data set [6] it was 0.1 to 1 µM. The IC50 on 3CLpro lay in the range of 0.02 to 0.2 µM; against human cathepsin L it was 1 to 10 µM; at HRV3C (setting [8]) it was 2 to 20 µM. Besides, the CC50 in the data set “in vitro [2]” and in the data set “in vitro [3]” (class symbols) was 1 to 10 µM throughout. Besides, the CC50 at 6 days in data set [4] is more than 10 µM.

In the case of `COc1cccc2[nH]c(C(=O)N3C[C@@H]4CCC[C@@H]4[C@H]3C(=O)N[C@@H](C[C@@H]3CCCNC3=O)C(O)S(=O)(=O)O)cc12` (stereo partly drawn) [Compound 53, sodium (2S)-2-{[(1S,3aR,6aS)-2-(4-methoxy-1H-indole-2-carbonyl)-hexahydro-1H-cyclopenta[c]pyrrol-1-yl]formamido}-1-hydroxy-3-[(3S)-2-oxopiperidin-3-yl]propane-1-sulfonate], the EC50 in data set [1] (class symbols) was less than 1 µM; in data set [5], 1 to 10 µM; in data set [6], 0.1 to 1 µM. Besides, the 50% inhibitory concentration (IC50) on 3CLpro was less than 0.02 µM; against human cathepsin L, not below 10 µM; at HRV3C (HRV IC50, HRV3C, class symbols), 0.02 to 0.2 µM. Also, the CC50 in “in vitro [2]” and in the data set “in vitro [3]” (numeric bounds) was more than 100 µM in each case. In data set [4], this molecule had a CC50 at 6 days of more than 10 µM.

As to `COc1cccc2[nH]c(C(=O)N3C[C@@H]4CCC[C@@H]4[C@H]3C(=O)NC(C[C@@H]3CCNC3=O)C(=O)C(C)O)cc12` (stereo partly drawn) [Compound 62, (1S,3aR,6aS)—N-(4-hydroxy-3-oxo-1-((S)-2-oxopyrrolidin-3-yl)pentan-2-yl)-2-(4-methoxy-1H-indole-2-carbonyl)octahydrocyclopenta[c]pyrrole-1-carboxamide], the EC50 in data set [1] (class symbols) lay within 10 to 100 µM; in data set [5], 10 to 100 µM; in data set [6] it was 1 to 10 µM. The IC50 on 3CLpro is 0.2 to 2 µM; on human cathepsin L it was not below 10 µM; at HRV3C (setting [7]) it was more than 10 µM. The CC50 in the data set “in vitro [2]” is more than 100 µM; in “in vitro [3]” (class symbols) it was more than 10 µM. Besides, in data set [4], the CC50 at 6 days is more than 10 µM.
